Where no end group is shown, it is not given here.
What was measured:
THP-1 cells = assay: Generation of Factor Xa by monocytes; assay type: cell-based; conditions: peptides 0.5 mM
Protocol: Factor Xa generation was determined by a modification of the method of Miletich et al. (1978), J. Biol. Chem. 253: 6908-6916. THP-1 cells (ATCC; 3×10^7 /ml) resuspended in RPMI 1640 (Bio Whittaker, Walkersville, Md.) were incubated with 100 μM ADP (Sigma), 2.5 mM CaCl2, 1 or 5 μg/ml Factor X (Hematologic Technologies Inc.) and 0.5 mM peptides at room temperature. After 20 minutes, 100 μl of the reaction mixture was transferred to 37° C. and supplemented with 100 μl of bovine factor VII- and Factor X-deficient plasma (Sigma). Coagulation was initiated by adding 100 μl of 25 mM CaCl2 and the clotting time was determined. Factor Xa procoagulant activity (ng/ml) was calculated by means of a standard curve constructed by serial concentrations of Factor Xa (Hematologic Technologies Inc.) from 50 to 250 ng/ml.

CD11b/CD18 = molecular target: T1, CD11b/CD18 (Homo sapiens, UniProt P05107+P11215); assay: Downmodulation of CD11b/CD18 on macrophages; assay type: cell-based; conditions: wells coated with peptides 0.5 mM or mAb IB4 50 μg/ml
T1 construct: endogenous in cells; host or cells: human monocyte-derived macrophages from buffy coats
T1 sequence (P05107 23-769, other chains not shown): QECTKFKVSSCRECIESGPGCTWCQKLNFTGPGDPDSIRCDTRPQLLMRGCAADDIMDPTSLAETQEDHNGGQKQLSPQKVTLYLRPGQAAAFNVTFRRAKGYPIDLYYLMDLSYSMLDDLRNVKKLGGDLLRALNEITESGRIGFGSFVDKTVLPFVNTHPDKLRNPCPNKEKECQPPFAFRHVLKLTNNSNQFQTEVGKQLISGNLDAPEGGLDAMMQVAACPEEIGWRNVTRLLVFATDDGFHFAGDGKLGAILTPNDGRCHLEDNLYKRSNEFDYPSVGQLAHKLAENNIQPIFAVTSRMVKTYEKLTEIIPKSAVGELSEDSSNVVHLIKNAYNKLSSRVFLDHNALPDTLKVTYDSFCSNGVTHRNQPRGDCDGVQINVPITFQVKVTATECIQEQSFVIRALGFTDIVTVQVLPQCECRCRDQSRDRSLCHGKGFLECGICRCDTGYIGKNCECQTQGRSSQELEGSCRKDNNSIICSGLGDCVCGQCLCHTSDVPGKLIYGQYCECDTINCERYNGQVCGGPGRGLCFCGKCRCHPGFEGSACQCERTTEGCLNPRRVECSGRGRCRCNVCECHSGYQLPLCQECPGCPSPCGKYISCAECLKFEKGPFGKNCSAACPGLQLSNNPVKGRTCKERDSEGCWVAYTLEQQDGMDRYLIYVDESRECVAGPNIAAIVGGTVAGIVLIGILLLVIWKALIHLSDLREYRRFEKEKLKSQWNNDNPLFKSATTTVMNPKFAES
Protocol: Human monocytes were purified from buffy coats on Percoll gradients and cultured in 12.5% human serum in Teflon beakers. Macrophages were harvested from Teflon beakers after 6-8 days and suspended in HAP buffer. Terasaki wells were coated with 5 μl of peptides (0.5 mM) or anti-CD18 mAb IB4 (50 μg/ml). Control wells were coated with HAP. After 2 hours of incubation at RT, 5 μl of macrophages (5×10^5 /ml HAP) were added and allowed to spread for 45 mins. at 37° C. […] IgM-coated erythrocytes in buffer served as negative control. After washing, the number of erythrocytes bound per 100 leukocytes (adherence index) was quantitated visually under an inverted microscope.

[1] = tested on: rats inoculated intracisternally with Haemophilus influenzae type b lipooligosaccharide; assay: Rat meningitis model (H. influenzae LOS); assay type: in vivo
Protocol: The experiments were performed according to established protocols (Wispelway et al., 1988, J. Clin. Invest., 82: 1339-1346). Purified Haemophilus influenzae type b strain DL42 lipooligosaccharide (LOS) was prepared for inoculation by sonication for 30 minutes, dilution to the desired concentration (20 ng/50 μl) in normal saline or PBS, and sonication for an additional 15 to 30 minutes just prior to use.
Briefly, anesthetized female Wistar rats were placed under a micromanipulator and inoculated intracisternally with a 25 gauge needle. After removal of 50 μl of CSF (without visible blood contamination), rats were inoculated intracisternally with 50 μl (20 ng) of LOS using a 1 ml syringe with a 25 gauge needle. Ten to fifteen minutes after inoculation with LOS, the rats were treated by intravenous administration of the test substance: a solution of an FHA peptide in PBS, a solution of a control peptide in PBS, or an equal volume of PBS alone.
Three hours after LOS inoculation, 5 μCi of ^125 I-radiolabelled albumin in 50 μl normal saline was administered intravenously. One hour later, CSF was collected via intracisternal puncture and blood samples were collected via intracardiac puncture. CSF leukocytosis was determined by manually counting white blood cells using a hemacytometer, and blood-brain barrier permeability was determined as the percent of radioactivity in whole blood that was present in the CSF. Blood samples were obtained immediately prior to inoculation, immediately prior to treatment, and at 4 hours post-inoculation for determination of peripheral white blood cell concentrations.

Human neutrophils = assay: Binding of 125I-Factor X to neutrophils; conditions: read-out: IC50 of inhibition of 125I-Factor X binding
Protocol: Human Factor X (Sigma or Hematologic Technologies Inc.) was labeled with ^125 I using Iodogen (Pierce Chemical Co.) Human neutrophils were isolated from heparinized blood according to the manufacturer's specification using Neutrophil Isolation Medium (Cardinal Associates, Santa Fe, N.M.) and washed three times with 5 mM EDTA-phosphate-buffered saline (PBS), pH 7.2, at 4° C. To eliminate platelet contamination,neutrophils were incubated with autologous serum containing 5 mM EDTA for 30 mins. at 37° C., washed three times with ice-cold PBS, pH 7.2, and resuspended in RPMI 1640 tissue culture medium (Whittaker M. A. Bioproducts, Walkersville, Md.) at 4° C. Binding of ^125 I-Factor X to neutrophils was measured based on a method described by Altieri et al. (1991) Science 254: 1200-1202. Briefly, 200 μl of neutrophils (1.5×10^7 /ml) were supplemented with 17.5 μl of 50 mM CaCl2, stimulated with 3.5 μl of 100 μM NH2 -formyl-Met-Leu-Phe (Sigma), and mixed with 30 μl of 10.3 μg/ml ^125 I-Factor X and 100 μl of 1.75 mM of peptide. Buffer alone and a peptide of scrambled sequence served as controls in each of the 3 experiments. After incubation for 20 mins. at room temperature, neutrophil-bound ^125 I-Factor X was separated from unbound ^125 I-Factor X by centrifugation of 300 μl aliquots through 50 μl of a mixture of Hi phenyl silicone oil DC 550 and methyl silicone oil DC 200 5:1 (Nye Inc. Specialty Lubricants, New Bedford, Mass.) at 12,000×g for 2 mins. Aliquots of the supernatant (cell free ^125 I-Factor X) and the cell pellet (cell bound ^125 I-Factor X) were counted in a gamma-counter. Nonspecific binding (~50,000 cpm) was determined by adding a 100 fold excess of unlabeled Factor X, and subtracted from total radioactivity (~500,000 cpm for controls).

[2] = 50% rabbit plasma at 37° C.
Protocol: To determine the stability of the FHA II peptide, the unmodified or the acetylated-amidated peptide were incubated in 50% rabbit plasma at 37° C.

With `CC(=O)N[C@@H](CC(C)C)C(=O)N[C@@H](CC(C)C)C(=O)N[C@H](C=O)CCCNC(=N)N` [Leupeptin, reference compound] the Clotting time (THP-1 cells) was 63.0 ± 4.0 s and the “Factor Xa” value (THP-1 cells; from standard curve) was < 10.0 ng/mL.
In the case of AADPHQGVLAQGDIIMDAKG [FHA Cc], the “reduction of binding of C3bi-coated erythrocytes to macrophages” value (“reduction” for short) (CD11b/CD18) is reported as “no significant effect”.
In the case of “Ac-VEEDTKG-NH2 [scrambled ac/am FHA II, VEEDTKG, reference compound]”, the BBB permeability ([1]; Experiment #3, 600 nmol) is reported as 7.74 ± 3.59% and the Leukocytosis ([1]; Experiment #3, 600 nmol i.v., CSF 4 hours after LOS) is reported as 14,287 ± 10,199 cells/ml.
For ETKEVDG [FHA II, ETKEVDG], the IC50 (Human neutrophils) was 10 µM and the “time in which concentration decreased by half” value [2] was 4 to 6 h.
In the case of GTLLLRNDALTENGTVTISA [FHA Cd], the “reduction” value (CD11b/CD18) is reported as “no significant effect”.
Molecule “GYDTKQEDG [Factor X II, reference compound]” has an IC50 (Human neutrophils) of 500 µM.
For RADPHQGVLAQGDIIMDAKG [FHA Cb], the “reduction” value (CD11b/CD18) was “no significant effect”.
In the case of RGDPHQGVLAQGDIIMDAKG [FHA Ca], the “reduction” value (CD11b/CD18) is reported as 61±7% and the neutropenia ([1]; peripheral white blood cells) is reported as “No neutropenia was observed”.
